Six molecules from PubChem BioAssay AID1963826 (Molecular Pharmacology Branch, DTP, NCI, 2024) can be followed below.

Several values for one entry are separate records, joined by “and”; a condition that tells them apart may be missing. Equal entries are not always repeated.

In this experiment the test system is 926638-142-R-J1-PDC complex spheroid viability. Description: Anticancer human tumor 926638-142-R-J1-PDC patient-derived endometrial carcinoma cell line growth inhibition [POLQ]. The note with it: for viability, T/C: stronger effect = lower value. Here is the method:
Multicellular complex tumor spheroid response to Polymerase (POL) inhibitors (novobiocin, ART-558, RP6685) in combination with a variety of drugs and investigational agents in selected tumor cell lines
The POL inhibitors (novobiocin, ART-558, and RP6685) were evaluated both individually and in combination with standard of care and investigational anticancer small molecules within a complex spheroid model of solid tumors. . Complex spheroids include a stromal component modeled by human endothelial cells (HUVEC) and fibroblasts modeled by human mesenchymal stem cells (MSCs). The concentration ranges selected for each drug and investigational agent were based upon clinically achievable concentrations if the clinical Cmax of the agent was known.
Compounds. The drugs and investigational agents: novobiocin (NSC847541), ART-558 (NSC835418), RP-6685 (NSC848927), peposertib (NSC802822), ceralasertib (NSC780249), elimusertib (NSC800525), camonsertib (NSC841442), AZD-1390 (NSC803789), olaparib (NSC753686), talazoparib (NSC767125), rucaparib (NSC756644), sotorasib (NSC818433), MRTX-1133 (NSC836407), SN-38 (NSC673596), topotecan (NSC609699), epotoside (NSC141540), doxorubicin (NSC123127), gemcitabine (NSC613327), 5-fluorouracil (NSC19893), paclitaxel (NSC125973), vemurafenib (NSC761431), MSA-2 (NSC828583), SN-011 (NSC837082), adavosertib (NSC754352), prexasertib (NSC758257), carboplatin (NSC241240) and oxaliplatin (NSC266046), were obtained from the National Cancer Institute (NCI) Developmental Therapeutics Program Chemical Repository (21). The FDA-approved anticancer drug set is available from the Developmental Therapeutics Program at https://dtp.cancer.gov/organization/dscb/obtaining/. […] The stock solutions were prepared in dimethyl sulfoxide (DMSO, Sigma-Aldrich, St. Louis, MO, cat. D2650), except for the platinum compounds which were prepared in saline (Quality Biological, Gaithersburg, MD, cat. 114-055-101), at 800-fold the tested concentration and stored at -70 degrees C prior to their use. All drugs and investigational agents were tested over a range starting from a high concentration at or near the clinical Cmax and decreasing in half-log increments. If the clinical Cmax for an agent had not been determined, the highest concentration tested was 10 microM, except for SN-38, which was tested at a high concentration of 1 microM.
Cell Culture. All cells were maintained in an incubator at 37 degrees C and 5% CO2 with 95% humidity. The PDC lines were cultured according to standard operating procedures established by the NCI PDMR (https://pdmr.cancer.gov). Table 3 of the manuscript, lists the cell lines along with the number of the three cell types plated to form the mct-spheroids and media for tumor cell growth. After thawing, all PDC lines, except 997537-175-T-J1-PDC and 415267-285-R-J2-PDC, were cultured in Matrigel-coated flasks prepared with a working solution of 1X Ham's F-12 nutrient mix, without supplementation (Thermo Fisher Scientific, cat. 11765054), 100 U/mL penicillin-streptomycin (Thermo Fisher Scientific, cat. 15140122), and 2.5% Matrigel (Corning Inc., Corning, NY, cat. 354248) for the first three passages. The two PDC lines 997537-175-T-J1-PDC and 415267-285-R-J2-PDC were cultured on uncoated flasks. The 857933-349-R-J2-PDC line was cultured in 6C/Colon 1B media containing advanced DMEM/F-12 (Thermo Fisher Scientific, cat. 12634028), 10 mM HEPES (Thermo Fisher Scientific, cat. 15630080), 1X GlutaMAX supplement (Thermo Fisher Scientific, cat. 35050061), 0.1 mg/mL primocin (InvivoGen, San Diego, CA, cat. ant-pm-2), 10% defined fetal bovine serum, heat inactivated (HyClone Laboratories Inc., Logan, UT, cat. SH30070.03HI), 50% L-WRN conditioned media (ATCC, cat. CRL-3276), 1.25 mM N-Acetyl-L-cysteine (Sigma-Aldrich, cat. A9165), 10 mM nicotinamide (Sigma-Aldrich, cat. N0636), 1X B-27 supplement (Thermo Fisher Scientific, cat. 17504044), 1X N-2 supplement (Thermo Fisher Scientific, cat. […]
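Also: spheroids exposed to drugs for one week before readout.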
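For viability, T/C in this document: percent viability relative to DMSO vehicle control wells set as 100%.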

In the case of `Cn1ncnc1[C@H]1c2n[nH]c(=O)c3cc(F)cc(c23)N[C@@H]1c1ccc(F)cc1` + Cc1cccc(N(C)C(=O)C2C(O)CCN2c2nc(C)cc(C(F)(F)F)c2C#N)c1, the IC50 reads like this: (curve of first compound, second compound 0.0316 µM) > 100 nM; (curve of first compound, second compound 0.1 µM) > 100 nM; (curve of first compound, second compound 0.316 µM) > 100 nM; (curve of first compound, second compound 1 µM) > 100 nM; (curve of first compound, second compound 3.16 µM) > 100 nM; (curve of first compound, second compound 10 µM) > 100 nM. The viability, T/C runs as follows: (second compound 0.0316 µM, first compound 0.000316 µM) 100%; (second compound 0.0316 µM, first compound 0.001 µM) 83.6%; (second compound 0.0316 µM, first compound 0.00316 µM) 86.1%; (second compound 0.0316 µM, first compound 0.01 µM) 84.9%; (second compound 0.0316 µM, first compound 0.0316 µM) 81.5%; (second compound 0.0316 µM, first compound 0.1 µM) 73.8%. Besides, the viability, T/C (second compound 0.1 µM, first compound 0.000316 µM) is 91.2%; the viability, T/C (second compound 0.1 µM, first compound 0.001 µM) was 82.4%; the viability, T/C (second compound 0.1 µM, first compound 0.00316 µM) is 83.6%; the viability, T/C (second compound 0.1 µM, first compound 0.01 µM) is 82.5%; the viability, T/C (second compound 0.1 µM, first compound 0.0316 µM) was 73.7%; the viability, T/C (second compound 0.1 µM, first compound 0.1 µM) is 78.8%. The viability, T/C was 86.9% (second compound 0.316 µM, first compound 0.000316 µM); 81.2% (second compound 0.316 µM, first compound 0.001 µM); 92.9% (second compound 0.316 µM, first compound 0.00316 µM); 73.4% (second compound 0.316 µM, first compound 0.01 µM); 64.9% (second compound 0.316 µM, first compound 0.0316 µM); 65.3% (second compound 0.316 µM, first compound 0.1 µM). Moreover, the viability, T/C by setting is: (second compound 1 µM, first compound 0.000316 µM) 103%; (second compound 1 µM, first compound 0.001 µM) 101%; (second compound 1 µM, first compound 0.00316 µM) 70.3%; (second compound 1 µM, first compound 0.01 µM) 77.2%; (second compound 1 µM, first compound 0.0316 µM) 85.1%; (second compound 1 µM, first compound 0.1 µM) 68.1%. The viability, T/C was 73.5% (second compound 3.16 µM, first compound 0.000316 µM); 97.5% (second compound 3.16 µM, first compound 0.001 µM); 91% (second compound 3.16 µM, first compound 0.00316 µM); 67.5% (second compound 3.16 µM, first compound 0.01 µM); 74.1% (second compound 3.16 µM, first compound 0.0316 µM); 76.8% (second compound 3.16 µM, first compound 0.1 µM). In addition, the viability, T/C runs as follows: (second compound 10 µM, first compound 0.000316 µM) 87.9%; (second compound 10 µM, first compound 0.001 µM) 84.2%; (second compound 10 µM, first compound 0.00316 µM) 77.3%; (second compound 10 µM, first compound 0.01 µM) 80%; (second compound 10 µM, first compound 0.0316 µM) 72.7%; (second compound 10 µM, first compound 0.1 µM) 75.7%.
Consider `COc1ccc([C@@H](O)c2cc(-c3ncnc4cc(N5CCOCC5)ccc34)c(F)cc2Cl)nn1`, for which the viability, T/C was 89.7% and 92.5% and 103% (compound 0.0316 µM); 89.2% and 79.2% and 80.3% (compound 0.1 µM); 58.8% and 72.4% and 64.8% (compound 0.316 µM); 29.3% and 35.7% and 36.9% (compound 1 µM); 13.2% and 18.7% and 16.1% (compound 3.16 µM); 8.76% and 11.7% and 5.8% (compound 10 µM). Further, under “curve of compound”, the IC50 is 466 nM and 635 nM and 606 nM.
On to `CC1COCCN1c1cc(-c2ccnn2C)c2ccnc(-c3ccn[nH]3)c2n1` (configuration not stated), for which the viability, T/C runs as follows: (compound 0.0316 µM) 83.5% and 103% and 85.4%; (compound 0.1 µM) 79.7% and 81.4% and 63.6%; (compound 0.316 µM) 55.4% and 57.6% and 51.2%; (compound 1 µM) 31.7% and 36.2% and 33%; (compound 3.16 µM) 13.4% and 11.8% and 14.9%; (compound 10 µM) 6.95% and 8.69% and 9.29%. Where the note is “curve of compound”, the IC50 is 435 nM and 450 nM and 287 nM.
In the case of `CCc1cc2c(N3CCc4c(cc(Cn5ccnc5)cc4-c4cn(C)nc4C(F)(F)F)C3=O)cc(C)nc2c(OC)n1`, the viability, T/C is 76.6% and 76.9% and 72.4% (compound 0.0316 µM); 62.2% and 66.4% and 61.3% (compound 0.1 µM); 52.8% and 62% and 51.8% (compound 0.316 µM); 42% and 51.2% and 48.4% (compound 1 µM); 26.5% and 38% and 43% (compound 3.16 µM); 23.4% and 35.1% and 33.4% (compound 10 µM). In addition, the IC50 (curve of compound) was 373 nM and 987 nM and 595 nM.
`CC(=O)O[C@H]1C(=O)[C@@]2(C)[C@H]([C@H](OC(=O)c3ccccc3)[C@]3(O)C[C@H](OC(=O)[C@H](O)[C@@H](NC(=O)c4ccccc4)c4ccccc4)C(C)=C1C3(C)C)[C@]1(OC(C)=O)CO[C@@H]1C[C@@H]2O`: the viability, T/C was 82.5% and 94% and 68.4% (compound 0.00949 µM); 63.2% and 60.2% and 77.5% (compound 0.03 µM); 57.1% and 53.2% and 62.2% (compound 0.0949 µM); 55% and 53.9% and 68.9% (compound 0.3 µM); 61.5% and 52.6% and 56% (compound 0.949 µM); 44.7% and 45.7% and 57.5% (compound 3 µM). For the same molecule, where the note is “curve of compound”, the IC50 is > 3000 nM.
As to `Cn1ncnc1[C@H]1c2n[nH]c(=O)c3cc(F)cc(c23)N[C@@H]1c1ccc(F)cc1`, the viability, T/C is 89.5% and 93.8% and 99.4% (compound 0.000316 µM); 85.5% and 91.6% and 86% (compound 0.001 µM); 76.9% and 94.5% and 82.1% (compound 0.00316 µM); 89.5% and 92.3% and 85.3% (compound 0.01 µM); 86.7% and 70% and 82.3% (compound 0.0316 µM); 67% and 72.8% and 67.5% (compound 0.1 µM). Further, under “curve of compound”, the 50% inhibitory concentration (IC50) was > 100 nM.

Usually IC50 stands for the concentration that inhibits the measured activity by half. A word on the viability, T/C: it is the result in the treated group divided by that in the control group, in per cent.
